Laboratory results as given in patent US20240307353A1, “JAK1 PATHWAY INHIBITORS FOR THE TREATMENT OF ASTHMA” (Incyte Corporation, priority 2023, published 2024).

Experiments:
JAK2 (a.a. 828-1132) = JAK2 (a.a. 828-1132) (Homo sapiens (Human), UniProt O60674); assay: In vitro JAK kinase assay (HTRF), JAK2 versus JAK1; assay type: biochemical; settings: IC50 ratio, 1 mM ATP
Method: (§1) The catalytic activity of JAK1, JAK2 or JAK3 was assayed by measuring the phosphorylation of a biotinylated peptide. The phosphorylated peptide was detected by homogenous time resolved fluorescence (HTRF). […] Reactions were carried out at room temperature for 1 hour and then stopped with 20 μL 45 mM EDTA, 300 nM SA-APC, 6 nM Eu-Py20 in assay buffer (Perkin Elmer, Boston, MA). Binding to the Europium labeled antibody took place for 40 minutes and HTRF signal was measured on a Fusion plate reader (Perkin Elmer, Boston, MA).

[1] = target: human JAK1 (a.a. 837-1142) (Homo sapiens, UniProt P23458); assay: In vitro JAK kinase assay (HTRF), JAK1; assay type: biochemical; settings: 1 mM ATP
Method: as §1

JAK2 (a.a. 828-1132), sequence (O60674 828-1132): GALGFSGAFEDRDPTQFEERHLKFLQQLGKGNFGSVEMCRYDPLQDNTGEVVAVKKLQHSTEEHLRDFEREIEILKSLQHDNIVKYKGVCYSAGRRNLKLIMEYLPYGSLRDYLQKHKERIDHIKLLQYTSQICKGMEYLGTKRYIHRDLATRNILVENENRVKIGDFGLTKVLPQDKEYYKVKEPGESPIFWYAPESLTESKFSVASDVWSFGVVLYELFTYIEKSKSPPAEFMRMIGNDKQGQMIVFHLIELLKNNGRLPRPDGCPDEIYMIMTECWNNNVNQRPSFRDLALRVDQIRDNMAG

Structure (SMILES) | JAK2/JAK1 (JAK2 (a.a. 828-1132)) | IC50 [1]
N#CCC(C1CCN(c2cccc(Cl)n2)C1)n1cc(-c2ncnc3[nH]ccc23)cn1 (single isomer, unassigned) [Compound 6, 3-[1-(6-chloropyridin-2-yl)pyrrolidin-3-yl]-3-[4-(7H-pyrrolo[2,3-d]pyrimidin-4-yl)-1H-pyrazol-1-yl]propanenitrile] | >10 | < 10 nM
N#CCC1(n2cc(-c3ncnc4[nH]ccc34)cn2)CN(C2CCN(C(=O)Nc3ccc(F)cc3C(F)(F)F)CC2)C1 [Compound 2, 4-{3-(Cyanomethyl)-3-[4-(7H-pyrrolo[2,3-d]pyrimidin-4-yl)-1H-pyrazol-1-yl]azetidin-1-yl}-N-[4-fluoro-2-(trifluoromethyl)phenyl]piperidine-1-carboxamide] | >10 | < 10 nM
N#CCC1(n2cc(-c3ncnc4[nH]ccc34)cn2)CN(C2CCN(C(=O)c3ccnc(C(F)(F)F)c3F)CC2)C1 [Compound 4, {1-{1-[3-Fluoro-2-(trifluoromethyl)isonicotinoyl]piperidin-4-yl}-3-[4-(7H-pyrrolo[2,3-d]pyrimidin-4-yl)-1H-pyrazol-1-yl]azetidin-3-yl}acetonitrile] | >10 | < 10 nM
N#CCC(CN1CCN(C(=O)c2ccc(C#N)cc2F)CC1)n1ccc(-c2ncnc3[nH]ccc23)c1 (centres unmarked) [Compound 9, 4-[(4-{3-cyano-2-[3-(7H-pyrrolo[2,3-d]pyrimidin-4-yl)-1H-pyrrol-1-yl]propyl}piperazin-1-yl)carbonyl]-3-fluorobenzonitrile] | >10 | < 10 nM
N#CC[C@]1(n2cc(-c3ncnc4[nH]ccc34)cn2)C[C@H](N2CCC(Oc3cc(CN4CCC[C@H]4CO)cc(C(F)(F)F)n3)CC2)C1 [Compound 12, {trans-3-(4-{[4-{[(2S)-2-(hydroxymethyl)pyrrolidin-1-yl]methyl}-6-(trifluoromethyl)pyridin-2-yl]oxy}piperidin-1-yl)-1-[4-(7H-pyrrolo[2,3-d]pyrimidin-4-yl)-1H-pyrazol-1-yl]cyclobutyl}acetonitrile] | >10 | < 10 nM
C[C@H](NC(=O)c1cc(F)c(N2CC(CC#N)(n3cc(-c4ncnc5[nH]ccc45)cn3)C2)cc1F)C(F)(F)F [Compound 16, 4-{3-(cyanomethyl)-3-[4-(7H-pyrrolo[2,3-d]pyrimidin-4-yl)-1H-pyrazol-1-yl]azetidin-1-yl}-2,5-difluoro-N-[(1S)-2,2,2-trifluoro-1-methylethyl]benzamide] | >10 | < 10 nM
CC(C)(O)c1cc(O[C@H]2CC[C@@H](N3CC(CC#N)(n4cc(-c5ncnc6[nH]ccc56)cn4)C3)CC2)nc(C(F)(F)F)c1 [Compound 20, {1-(cis-4-{[4-(1-hydroxy-1-methylethyl)-6-(trifluoromethyl)pyridin-2-yl]oxy}cyclohexyl)-3-[4-(7H-pyrrolo[2,3-d]pyrimidin-4-yl)-1H-pyrazol-1-yl]azetidin-3-yl}acetonitrile] | >10 | < 10 nM
N#CCC1(n2cc(-c3ncnc4[nH]ccc34)cn2)CN([C@H]2CC[C@@H](Oc3cc(CN4CC[C@@H](O)C4)cc(C(F)(F)F)n3)CC2)C1 [Compound 21, {1-(cis-4-{[4-{[(3R)-3-hydroxypyrrolidin-1-yl]methyl}-6-(trifluoromethyl)pyridin-2-yl]oxy}cyclohexyl)-3-[4-(7H-pyrrolo[2,3-d]pyrimidin-4-yl)-1H-pyrazol-1-yl]azetidin-3-yl}acetonitrile] | >10 | < 10 nM
N#CCC1(n2cc(-c3ncnc4[nH]ccc34)cn2)CN([C@H]2CC[C@@H](Oc3cc(CN4CC[C@H](O)C4)cc(C(F)(F)F)n3)CC2)C1 [Compound 22, {1-(cis-4-{[4-{[(3S)-3-hydroxypyrrolidin-1-yl]methyl}-6-(trifluoromethyl)pyridin-2-yl]oxy}cyclohexyl)-3-[4-(7H-pyrrolo[2,3-d]pyrimidin-4-yl)-1H-pyrazol-1-yl]azetidin-3-yl}acetonitrile] | >10 | < 10 nM
C[C@@H](CO)NCc1cc(OC2CCN([C@H]3C[C@](CC#N)(n4cc(-c5ncnc6[nH]ccc56)cn4)C3)CC2)nc(C(F)(F)F)c1 [Compound 23, {trans-3-(4-{[4-({[(1S)-2-hydroxy-1-methylethyl]amino}methyl)-6-(trifluoromethyl)pyridin-2-yl]oxy}piperidin-1-yl)-1-[4-(7H-pyrrolo[2,3-d]pyrimidin-4-yl)-1H-pyrazol-1-yl]cyclobutyl}acetonitrile] | >10 | < 10 nM
C[C@@H](O)CNCc1cc(OC2CCN([C@H]3C[C@](CC#N)(n4cc(-c5ncnc6[nH]ccc56)cn4)C3)CC2)nc(C(F)(F)F)c1 [Compound 24, {trans-3-(4-{[4-({[(2R)-2-hydroxypropyl]amino}methyl)-6-(trifluoromethyl)pyridin-2-yl]oxy}piperidin-1-yl)-1-[4-(7H-pyrrolo[2,3-d]pyrimidin-4-yl)-1H-pyrazol-1-yl]cyclobutyl}acetonitrile] | >10 | < 10 nM
C[C@H](O)CNCc1cc(OC2CCN([C@H]3C[C@](CC#N)(n4cc(-c5ncnc6[nH]ccc56)cn4)C3)CC2)nc(C(F)(F)F)c1 [Compound 25, {trans-3-(4-{[4-({[(2S)-2-hydroxypropyl]amino}methyl)-6-(trifluoromethyl)pyridin-2-yl]oxy}piperidin-1-yl)-1-[4-(7H-pyrrolo[2,3-d]pyrimidin-4-yl)-1H-pyrazol-1-yl]cyclobutyl}acetonitrile] | >10 | < 10 nM
N#CC[C@]1(n2cc(-c3ncnc4[nH]ccc34)cn2)C[C@H](N2CCC(Oc3cc(CCO)cc(C(F)(F)F)n3)CC2)C1 [Compound 26, {trans-3-(4-{[4-(2-hydroxyethyl)-6-(trifluoromethyl)pyridin-2-yl]oxy}piperidin-1-yl)-1-[4-(7H-pyrrolo[2,3-d]pyrimidin-4-yl)-1H-pyrazol-1-yl]cyclobutyl}acetonitrile] | >10 | < 10 nM

Second part, the compound after the results:

JAK2/JAK1 (JAK2 (a.a. 828-1132)) | IC50 [1] | Structure (SMILES)
>10 | < 10 nM | N#CCC1(n2cc(-c3ncnc4[nH]ccc34)cn2)CN(C2CCN(C(=O)c3ccnc(C(F)(F)F)n3)CC2)C1 [Compound 3, [3-[4-(7H-pyrrolo[2,3-d]pyrimidin-4-yl)-1H-pyrazol-1-yl]-1-(1-{[2-(trifluoromethyl)pyrimidin-4-yl]carbonyl}piperidin-4-yl)azetidin-3-yl]acetonitrile]
>10 | < 100 nM | C[C@@H](O)c1nc2cnc3ccsc3c2n1[C@H]1CC[C@H](CC#N)OC1 [Compound 5, ((2R,5S)-5-{2-[(1R)-1-hydroxyethyl]-1H-imidazo[4,5-d]thieno[3,2-b]pyridin-1-yl}tetrahydro-2H-pyran-2-yl)acetonitrile]
>10 | < 10 nM | N#CCC(C1CCN(c2nc3cccnc3o2)C1)n1cc(-c2ncnc3[nH]ccc23)cn1 (centres unmarked) [Compound 7, 3-(1-[1,3]oxazolo[5,4-b]pyridin-2-ylpyrrolidin-3-yl)-3-[4-(7H-pyrrolo[2,3-d]pyrimidin-4-yl)-1H-pyrazol-1-yl]propanenitrile]
>10 | < 10 nM | N#CCC(CN1CCN(C(=O)c2ccc(C#N)cc2F)CC1)n1cc(-c2ncnc3[nH]ccc23)cn1 (centres unmarked) [Compound 8, 4-[(4-{3-cyano-2-[4-(7H-pyrrolo[2,3-d]pyrimidin-4-yl)-1H-pyrazol-1-yl]propyl}piperazin-1-yl)carbonyl]-3-fluorobenzonitrile]
>10 | < 10 nM | N#CC[C@]1(n2cc(-c3ncnc4[nH]ccc34)cn2)C[C@H](N2CCN(C(=O)c3ccnc(C(F)(F)F)n3)CC2)C1 [Compound 10, [trans-1-[4-(7H-pyrrolo[2,3-d]pyrimidin-4-yl)-1H-pyrazol-1-yl]-3-(4-{[2-(trifluoromethyl)pyrimidin-4-yl]carbonyl}piperazin-1-yl)cyclobutyl]acetonitrile]
>10 | < 10 nM | N#CC[C@]1(n2cc(-c3ncnc4[nH]ccc34)cn2)C[C@H](N2CCC(Oc3cc(CN4CC(O)C4)cc(C(F)(F)F)n3)CC2)C1 [Compound 11, {trans-3-(4-{[4-[(3-hydroxyazetidin-1-yl)methyl]-6-(trifluoromethyl)pyridin-2-yl]oxy}piperidin-1-yl)-1-[4-(7H-pyrrolo[2,3-d]pyrimidin-4-yl)-1H-pyrazol-1-yl]cyclobutyl}acetonitrile]
>10 | < 10 nM | N#CC[C@]1(n2cc(-c3ncnc4[nH]ccc34)cn2)C[C@H](N2CCC(Oc3cc(CN4CCC[C@@H]4CO)cc(C(F)(F)F)n3)CC2)C1 [Compound 13, {trans-3-(4-{[4-{[(2R)-2-(hydroxymethyl)pyrrolidin-1-yl]methyl}-6-(trifluoromethyl)pyridin-2-yl]oxy}piperidin-1-yl)-1-[4-(7H-pyrrolo[2,3-d]pyrimidin-4-yl)-1H-pyrazol-1-yl]cyclobutyl}acetonitrile]
>10 | < 10 nM | N#CCC1(n2cc(-c3ncnc4[nH]ccc34)cn2)CN([C@H]2CC[C@@H](Oc3cc(CCO)nc(C(F)(F)F)n3)CC2)C1 [Compound 18, {1-(cis-4-{[6-(2-hydroxyethyl)-2-(trifluoromethyl)pyrimidin-4-yl]oxy}cyclohexyl)-3-[4-(7H-pyrrolo[2,3-d]pyrimidin-4-yl)-1H-pyrazol-1-yl]azetidin-3-yl}acetonitrile]
>10 | < 10 nM | CCNCc1cc(O[C@H]2CC[C@@H](N3CC(CC#N)(n4cc(-c5ncnc6[nH]ccc56)cn4)C3)CC2)nc(C(F)(F)F)c1 [Compound 19, {1-(cis-4-{[4-[(ethylamino)methyl]-6-(trifluoromethyl)pyridin-2-yl]oxy}cyclohexyl)-3-[4-(7H-pyrrolo[2,3-d]pyrimidin-4-yl)-1H-pyrazol-1-yl]azetidin-3-yl}acetonitrile]
